# Laboratory results from patent publication US8476051B2, “Thermostable alcohol dehydrogenase derived from Thermococcus guaymasensis” (priority 2008, dated 2013).
# “Also recorded” adds a separate entry of the source. Read-outs that look alike come from different tables or passages of the source. Marks after values point to notes of the source that are not given here.
# B1: TgADH(C56S): TgADH mutant, serine for cysteine at position 56 (SEQ ID NO:10), expressed in E. coli Rosetta-2 (protein)
# chain: MHHHHHHSSGLVPRGSGMKETAAAKFERQHMDSPDLGTDDDDKAMADIGSEFMSKMRGFAMVDFGKAEWIEKERPKPGPYDAIVKPIAVAPCTSDIHTVFEAAFPREMSEFPRILGHEAVGEVVEVGSHVKDFKPGDRVVVPAITPDWRTLDVQRGYHQHSGGMLAGWKFSNPLKEGGKDGVFAEYFHVNDADMNLAHLPDEIKPEVAVMATDMMTTGFHGAELADIPLGGTVAVIGIGPVGLMAVAGARLLGAGRIIAVGSRPVCVEAAKYYGATDIVNRREHPDIAGRILELTGGEGVDSVIIAGGNVDVMKTAVKIVKPGGTVANINYFGSGDYLPIPRIEWGQGMAHKTIKGGLCPGGRLRMERLLDLIKYGRVDPSRLITHKFKGFDKIPEALYLMKDKPKDLIKPVVIIEE
# modifications: C56S with vector coding region
# Columns and labels:
# [1] = target: T1, T. guaymasensis ADH (Thermococcus guaymasensis, UniProt F8S123); test: Substrate specificity, alcohol oxidation (standard enzyme assay); type: biochemical; details: for Relative activity (alcohol oxidation): alcohols 50 mM, 100% = 2-butanol, 0.4 mM NADP^+, pH 10.5, 80° C.
# Method: (§1) The purified enzyme (0.25 μg) initiated the enzyme assay. […] The protein concentrations of all samples were determined using the Bradford method and bovine serum albumin served as the standard protein (Bradford 1976).
# (§2) The effect of pH on the enzyme activities was determined over a range of 5.5-11.4. The buffers (100 mM) used were phosphate (pH 5.5-8.0), EPPS (8.0-9.0), glycylglycine (9.0-9.7), and CAPS (9.7-11.4). The effect of the temperature on the enzyme activity was examined at temperatures from 30 to 95° C. Enzyme thermostability was determined by incubating the enzyme in sealed serum bottles at 80° C. and 95° C., respectively. Residual activity was assayed at various time intervals under the standard assay conditions. Substrate specificity was determined using primary and secondary alcohols (50 mM), diols and polyols (50 mM), or aldehydes and ketones (6 mM) under standard assay conditions.
# [2] = target: T1, T. guaymasensis ADH; test: Substrate specificity, aldehyde/ketone reduction (standard enzyme assay); type: biochemical; details: aldehydes or ketones 6 mM; 100% = 2-butanone; 0.2 mM NADPH, pH 7.5, 80° C.
# Method: as §1, §2
# [3] = target: T1, T. guaymasensis ADH; test: Stereoselective conversion between acetoin and 2,3-butanediol (chiral GC); type: biochemical
# Method: All the reactions were carried out at 30° C. for 24 hours unless specified. After that, the reaction mixture (1 ml) was extracted with 1 ml ethyl acetate or dichloride methane with shaking on a Gyrotory water bath shaker model G76 (New Brunswick Scientific Co., INC., NJ, USA) at 350 rpm for 30 min (room temperature). The stereoselectivity of the purified enzyme was determined using the Shimadzu GC-14A gas chromatography equipped with a CP-Chirasil-Dex CB column (0.25 mm ID×25 m length, Varian Inc., Palo Alto, Calif., USA). The following GC operating conditions included the FID detector (250° C.) at a sensitivity range of 10 and helium as the carrier gas at a linear velocity of 40 cm s^−1. […] The reaction mixture after extraction (0.5 μl) was directly applied onto the injector (200° C.) for each assay. The peak areas were quantitated using specific external standards.
# [4] = ADH specific activity (spectrophotometric enzyme assay); type: biochemical
# Method: as §1
# The reaction was initiated by adding enzymes.
# [5] = Oxygen sensitivity (residual activity after exposure to air); type: physicochemical; details: exposed to air for a week
# Method: The effect of oxygen on enzyme activity was investigated by exposing the enzyme samples in the air at room temperature and determining the residual activity after oxygen exposure. The exposure was performed in the presence or absence of DDT and SDT. The residual activities of each sample at different time intervals were tested parallelly under the standard assay conditions.
# [6] = oxidation, 50 mM substrate, 500 mM acetone, 1 mM NADP^+, 30° C., 24 hours
molecule,measurement,setting,value
1-Propanol,Relative activity (alcohol oxidation),[1],15.1 ± 0.3%
CC(=O)C(C)O (racemic) [Acetoin],Oxidation of the substrate by the enzyme (in words),[1],could not oxidize; also recorded: cannot be oxidized
same,Relative activity (aldehyde/ketone reduction),[2],93 ± 3.2%
same,"ee of (2R,3R)-2,3-butanediol and meso-2,3-butanediol over (2S,3S)-(+)-2,3-butanediol","[3]; reduction, 50 mM substrate, 500 mM isopropanol, 1 mM NADPH, 30° C., 24 hours",> 99%
"CCC(O)CO (stereo not drawn) [1,2-Butanediol]",Relative activity (alcohol oxidation),[1],25.6 ± 2.3%
"CCCC(O)CO (stereo not drawn) [1,2-Pentanediol]",Relative activity (alcohol oxidation),[1],4.7 ± 0.3%
"CC(O)CCO (stereo not drawn) [1,3-Butanediol]",Relative activity (alcohol oxidation),[1],35.4 ± 1.1%
CCCCO [1-Butanol],Relative activity (alcohol oxidation),[1],5.1 ± 0.2%
CCCCCO [1-Pentanol],Relative activity (alcohol oxidation),[1],0.8 ± 0.2%
"CC(O)C(C)O (stereo not drawn) [2,3-Butanediol]",Relative activity (alcohol oxidation),[1],78.7 ± 3.4%
"CC(O)CC(C)O (stereo not drawn) [2,4-Pentanediol]",Relative activity (alcohol oxidation),[1],9.2 ± 0.1%
CCC(C)O (stereo not drawn) [2-Butanol],Activity meant by relative activity of 100% in alcohol oxidation,[1]; 50 mM substrate,^aThe relative activity of 100% in alcohol oxidation means 1144 ± 24 U mg^−1.
same,Relative activity (alcohol oxidation),[1],100 ± 2.2^a %
CCC(C)=O [2-Butanone],Relative activity (aldehyde/ketone reduction),[2],100 ± 3.4^b %
same,Stereoselectivity of the reduction (in words),[3]; reduction to chiral 2-butanols,no stereoselectivity
CCCC(C)O (stereo not drawn) [2-Pentanol],Relative activity (alcohol oxidation),[1],66.3%
CCCC(C)=O [2-Pentanone],Relative activity (aldehyde/ketone reduction),[2],86.2 ± 3.1%
CC(C)O [2-Propanol],Relative activity (alcohol oxidation),[1],88 ± 1.1%
"C[C@@H](O)[C@@H](C)O [(2R,3R)-(−)-2,3-butanediol]",Enantiomeric excess (ee) of product (3R)-acetoin,[3]; [6],94%
CC=O [Acetaldehyde],Relative activity (aldehyde/ketone reduction),[2],36 ± 4.2%
CC(C)=O [Acetone],Relative activity (aldehyde/ketone reduction),[2],149.4 ± 2.8%
CCCC=O [Butyraldehyde],Relative activity (aldehyde/ketone reduction),[2],112.4 ± 11.9%
CC(=O)C(C)=O [Diacetyl],Relative activity (aldehyde/ketone reduction),[2],134.8 ± 5.9%
CCO [Ethanol],Relative activity (alcohol oxidation),[1],5.7 ± 0.3%
OCC(O)CO [Glycerol],Relative activity (alcohol oxidation),[1],0.2 ± 0.1%
N[C@@H](CO)C(=O)O [L-serine],Oxidation of the substrate by the enzyme (in words),[1],no activity; also recorded: did not catalyze
C[C@@H](O)[C@H](N)C(=O)O [L-threonine],Oxidation of the substrate by the enzyme (in words),[1],no activity; also recorded: did not catalyze
same,Oxidation of the substrate by the enzyme (in words),[1]; listed as threonine,did not catalyze
CO [Methanol],Oxidation of the substrate by the enzyme (in words),[1],did not oxidize
same,Relative activity (alcohol oxidation),[1],0%
"C[C@H](O)[C@@H](C)O [meso-2,3-butanediol]",Enantiomeric excess (ee) of product (3S)-acetoin,[3]; [6],88%
B1,Enzyme activity compared with wild type TgADH (in words),[4],virtually no difference
same,Activity after exposure to air (in words),[5],lost activity
